Laboratory results published in patent US10259807B2, “1-(piperazin-1-yl)-2-([1,2,4]triazol-1-yl)-ethanone derivatives” (Idorsia Pharmaceuticals Ltd., priority 2013, dated 2019).

Assays:
[1] = target: T1, human CXCR3A (Homo sapiens, UniProt P49682); assay: FLIPR assay (CXCL10-induced calcium signal in CHO-K1 cells); assay type: cell-based; details: CHO-K1 cells expressing human CXCR3A coupled to Galpha(16); CXCL10 agonist 20 nM; mean values
T1 construct: expressed in transfected cells; host or cells: CHO-K1
T1 sequence (P49682 1-368): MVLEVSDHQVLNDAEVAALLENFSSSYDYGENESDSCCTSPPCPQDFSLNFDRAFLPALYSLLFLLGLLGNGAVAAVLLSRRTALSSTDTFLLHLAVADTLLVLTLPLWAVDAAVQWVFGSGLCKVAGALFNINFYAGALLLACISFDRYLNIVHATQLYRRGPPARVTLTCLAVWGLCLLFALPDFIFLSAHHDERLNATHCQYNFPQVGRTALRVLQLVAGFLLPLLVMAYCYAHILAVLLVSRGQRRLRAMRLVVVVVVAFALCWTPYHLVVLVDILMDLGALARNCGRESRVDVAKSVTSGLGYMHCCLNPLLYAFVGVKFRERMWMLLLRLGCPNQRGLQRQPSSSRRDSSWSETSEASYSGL
Protocol: A) FLIPR assay: The bioactivity of compounds is tested in a fluorometric imaging plate reader (FLIPR: Molecular Devices) using engineered CHO-K1 cells expressing the human CXCR3A (GenBank: AY242128) coupled to a G protein (Galpha(16)). Cells are plated the day prior to bioassay in F12 medium supplemented with 10% FBS and G418 and hygromycin antibiotics to maintain recombinant selection. […] Cells are washed free of excess dye and 60 microliter of wash buffer is added. Stock solutions of test compounds are made up at a concentration of 10 mM in DMSO, and serially diluted in dilution buffer to concentrations required for inhibition dose response curves. After a 10 minute incubation period at 37° C., 10 microliters of each compound dilution are transferred from a compound plate to the plate containing the recombinant cells in the FLIPR instrument according to the manufacturer's instructions. Following basal readings, 10 microliter CXCL10 agonist at a concentration of 20 nM (from Peprotech) is added, again using the FLIPR instrument. Changes in fluorescence are monitored before and after addition of the test compounds. Emission peak values above base level after CXCL10 addition are exported after base line subtraction. The program XLfit is used to fit the data to a single site dose response curve and to calculate IC50 values. The calculated IC50 values may fluctuate depending on the daily assay performance. Fluctuations of this kind are known to those skilled in the art.

[2] = target: T2, hERG K channel (Homo sapiens, UniProt Q12809); assay: hERG Q-Patch assay; assay type: cell-based; details: CHO cells expressing hERG, K+ tail current 3 min after application, mean of two or three experiments
T2 construct: host or cells: CHO
T2 sequence (Q12809 whole entry): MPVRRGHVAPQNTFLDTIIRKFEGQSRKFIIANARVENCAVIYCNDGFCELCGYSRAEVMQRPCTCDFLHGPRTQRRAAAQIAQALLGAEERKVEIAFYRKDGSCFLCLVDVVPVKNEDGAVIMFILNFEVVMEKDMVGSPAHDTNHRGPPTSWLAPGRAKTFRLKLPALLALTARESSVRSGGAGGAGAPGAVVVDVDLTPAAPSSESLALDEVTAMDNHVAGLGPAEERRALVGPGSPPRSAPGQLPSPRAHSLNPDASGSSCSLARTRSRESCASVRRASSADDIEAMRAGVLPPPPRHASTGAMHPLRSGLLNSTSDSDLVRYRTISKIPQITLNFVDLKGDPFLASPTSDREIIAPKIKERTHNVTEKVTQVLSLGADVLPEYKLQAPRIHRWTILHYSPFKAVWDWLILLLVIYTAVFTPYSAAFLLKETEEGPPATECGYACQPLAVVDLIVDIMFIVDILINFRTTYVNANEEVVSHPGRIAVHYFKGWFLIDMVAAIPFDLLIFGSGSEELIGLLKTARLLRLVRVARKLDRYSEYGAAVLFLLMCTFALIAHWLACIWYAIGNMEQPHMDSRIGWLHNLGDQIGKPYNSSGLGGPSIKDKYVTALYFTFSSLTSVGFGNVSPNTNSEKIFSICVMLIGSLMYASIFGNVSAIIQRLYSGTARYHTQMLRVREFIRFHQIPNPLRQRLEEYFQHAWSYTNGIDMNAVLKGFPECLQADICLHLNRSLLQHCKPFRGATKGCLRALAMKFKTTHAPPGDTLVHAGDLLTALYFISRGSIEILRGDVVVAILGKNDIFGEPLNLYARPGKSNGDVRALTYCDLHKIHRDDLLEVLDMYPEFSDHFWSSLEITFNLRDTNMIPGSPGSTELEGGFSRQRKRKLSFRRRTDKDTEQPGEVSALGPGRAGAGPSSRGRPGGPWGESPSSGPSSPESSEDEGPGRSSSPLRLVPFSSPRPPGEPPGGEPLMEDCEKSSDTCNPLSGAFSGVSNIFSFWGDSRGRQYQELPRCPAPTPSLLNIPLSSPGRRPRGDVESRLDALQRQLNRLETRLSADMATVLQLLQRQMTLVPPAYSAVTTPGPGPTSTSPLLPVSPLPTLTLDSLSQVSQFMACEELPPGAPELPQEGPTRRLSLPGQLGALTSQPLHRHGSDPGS
Protocol: B) hERG Q-Patch assay: Compounds are evaluated for block of the hERG K channel using CHO cells stably expressing the hERG gene (accession number U04270, bSys, Witterswil. Switzerland) and the Patch robotic platform (Sophion, Ballerup, Denmark) in single-cell mode at room temperature. […] When the cells are ˜80% confluent (every 2-3 days), they are either split for further culture or used for electrophysiology. […] Cells are kept in suspension medium at 32-35° C. in the QPatch robot until use, at which time aliquots are transferred to the extracellular solution (in mM: NaCl 150; KCl 4; CaCl2 1.2; MgCl2 1; HEPES 10; pH 7.4 with NaOH) containing 0.3% v/v DMSO and applied to the test plates. K^+ currents are measured with the patch-voltage-clamp technique in the whole-cell configuration with the internal solution (in […]: KCl, 140; NaCl, 10; MgCl2, 1; HEPES, 10; EGTA, 5; pH=7.2 with KOH). […] K^+tail currents are produced from a holding voltage of −80 mV by a 500-ms depolarization to +20 mV followed by a 500-ms repolarization to −40 mV; tail current amplitudes are measured at the end of the repolarization to −40 mV. The pulse pattern is repeated every 10 sec during the experiment, baseline K^+ current is measured after 3 min in extracellular solution, test-solution containing compound is then applied, and K^+ current in presence of compound is measured 3 minutes after application to the cells.

[3] = Human liver microsome assay (metabolic stability); assay type: in vitro ADME; details: human liver microsomes 0.5 mg/mL, compound 1 μM, 37° C., pH 7.4, NADPH-regenerating system
Protocol: Incubation with human liver microsomes was performed to assess metabolic stability at a single compound concentration of 1 μM. A 1 μL-aliquot of the compounds stock solutions in DMSO were added to 899 μL of 100 mM phosphate buffer (pH 7.4) containing the liver microsomes at a concentration of 0.5 mg/mL and the mixture was incubated at 37° C. in an Eppendorf thermomixer at 450 rpm. The reaction was initiated by addition of 100 μL of NADPH-regenerating system containing the glucose-6-phosphate dehydrogenase and at the pre-defined time points, 0, 1.5, 2.5, 5, 10, and 15 min, 100 μL of the incubation was transferred in 100 μL of ice-cold methanol to stop the reaction. Samples were centrifuged at 3220 g for 20 min at 4° C. and the supernatants were submitted to LC/MS-MS analysis.
Calculation of intrinsic clearance CLint:
Natural logarithm of remaining amount of compound was plotted as function of time and the slope of the line determined.
Elimination rate constant (k)=−slope
V=volume of incubation/amount of protein

| SMILES | IC50 [1] [nM] | % block ([2]; concentration 300 nM) [%] | % block ([2]; concentration 3000 nM) [%] | microsomal CLint at 1 µM [3] [µL/min/mg] |
| --- | --- | --- | --- | --- |
| CCOc1ncc(-c2nc(C(F)(F)F)sc2N2CCN(C(=O)Cn3nc(CC)nc3C)[C@H](C)C2)cn1 (single isomer, unassigned) [Example 18] | 3.1 | 3 | 13 | 60 |
| Cc1nc(C)n(CC(=O)N2CCN(c3sc(C(F)(F)F)nc3-c3ccc(Cl)cc3)C[C@H]2C)n1 [Example 7, 1-{(R)-4-[4-(4-Chloro-phenyl)-2-trifluoromethyl-thiazol-5-yl]-2-methyl-piperazin-1-yl}-2-(3,5-dimethyl-[1,2,4]triazol-1-yl)-ethanone] | 9.3 | 34 | 88 | 7 |
| CCOc1ccc(-c2nc(C(F)(F)F)sc2N2CCN(C(=O)Cn3nc(C)nc3C)[C@H](C)C2)cn1 [Example 15, 2-(3,5-Dimethyl-[1,2,4]triazol-1-yl)-1-{(R)-4-[4-(6-ethoxy-pyridin-3-yl)-2-trifluoromethyl-thiazol-5-yl]-2-methyl-piperazin-1-yl}-ethanone] | 9.2 | 1 | 13 | 66 |
| CCOc1ncc(-c2nc(C(F)(F)F)sc2N2CCN(C(=O)Cn3nc(C)nc3C)[C@H](C)C2)cn1 [Example 20, 2-(3,5-Dimethyl-[1,2,4]triazol-1-yl)-1-{(R)-4-[4-(2-ethoxy-pyrimidin-5-yl)-2-trifluoromethyl-thiazol-5-yl]-2-methyl-piperazin-1-yl}-ethanone] | 5.7 | 9 | 20 | 8 |
| CCCc1ncc(-c2nc(C(F)(F)F)sc2N2CCN(C(=O)Cn3nc(C)nc3C)[C@H](C)C2)cn1 [Example 22, 2-(3,5-Dimethyl-[1,2,4]triazol-1-yl)-1-{(R)-2-methyl-4-[4-(2-propyl-pyrimidin-5-yl)-2-trifluoromethyl-thiazol-5-yl]-piperazin-1-yl}-ethanone] | 2.9 | 1 | 7 | 78 |
| Cc1nc(C)n(CC(=O)N2CCN(c3sc(C(F)(F)F)nc3-c3cnc(OC(C)C)nc3)C[C@H]2C)n1 [Example 27, 2-(3,5-Dimethyl-[1,2,4]triazol-1-yl)-1-{(R)-4-[4-(2-isopropoxy-pyrimidin-5-yl)-2-trifluoromethyl-thiazol-5-yl]-2-methyl-piperazin-1-yl}-ethanone] | 3.5 | 2 | 6 | 13 |
| Cc1nc(C)n(CC(=O)N2CCN(c3sc(C(F)(F)F)nc3-c3cnc(C4CC4)nc3)C[C@H]2C)n1 [Example 33, 1-{(R)-4-[4-(2-Cyclopropyl-pyrimidin-5-yl)-2-trifluoromethyl-thiazol-5-yl]-2-methyl-piperazin-1-yl}-2-(3,5-dimethyl-[1,2,4]triazol-1-yl)-ethanone] | 2.9 | 4 | 17 | 7 |
| Cc1nc(C)n(CC(=O)N2CCN(c3sc(C(F)(F)F)nc3-c3cnc(N4CCCC4)nc3)C[C@H]2C)n1 [Example 36, 2-(3,5-Dimethyl-[1,2,4]triazol-1-yl)-1-{(R)-2-methyl-4-[4-(2-pyrrolidin-1-yl-pyrimidin-5-yl)-2-trifluoromethyl-thiazol-5-yl]-piperazin-1-yl}-ethanone] | 1.6 | 7 | 15 | 338 |
| Cc1nc(C)n(CC(=O)N2CCN(c3sc(C(F)(F)F)nc3-c3cnc(OC4CCC4)nc3)C[C@H]2C)n1 [Example 38, 1-{(R)-4-[4-(2-Cyclobutoxy-pyrimidin-5-yl)-2-trifluoromethyl-thiazol-5-yl]-2-methyl-piperazin-1-yl}-2-(3,5-dimethyl-[1,2,4]triazol-1-yl)-ethanone] | 2.3 | 5 | 11 | 51 |
| Cc1nc(CO)n(CC(=O)N2CCN(c3sc(C(F)(F)F)nc3-c3cnc(C(F)(F)F)nc3)C[C@H]2C)n1 [Example 45, 2-(5-Hydroxymethyl-3-methyl-[1,2,4]triazol-1-yl)-1-{(R)-2-methyl-4-[2-trifluoromethyl-4-(2-trifluoromethyl-pyrimidin-5-yl)-thiazol-5-yl]-piperazin-1-yl}-ethanone] | 15 | 0 | 1 | 14 |
| Cc1nc(C(C)(C)O)nn1CC(=O)N1CCN(c2sc(C(F)(F)F)nc2-c2cnc(C(F)(F)F)nc2)C[C@H]1C [Example 48, 2-[3-(1-Hydroxy-1-methyl-ethyl)-5-methyl-[1,2,4]triazol-1-yl]-1-{(R)-2-methyl-4-[2-trifluoromethyl-4-(2-trifluoromethyl-pyrimidin-5-yl)-thiazol-5-yl]-piperazin-1-yl}-ethanone] | 4.7 | 1 | 2 |  |
| Cc1nc(C)n(CC(=O)N2CCN(c3sc(C(F)(F)F)nc3-c3ccc(C(F)(F)F)nc3)C[C@H]2C)n1 [Example 49, 2-(3,5-Dimethyl-[1,2,4]triazol-1-yl)-1-{(R)-2-methyl-4-[2-trifluoromethyl-4-(6-trifluoromethyl-pyridin-3-yl)-thiazol-5-yl]-piperazin-1-yl}-ethanone] | 3.6 |  |  | 4 |
| Cc1nc(C)n(CC(=O)N2CCN(c3sc(C(F)(F)F)nc3-c3cnc(C(F)(F)F)nc3)C[C@@H]2C)n1 [Example 50, 2-(3,5-Dimethyl-[1,2,4]triazol-1-yl)-1-{(S)-2-methyl-4-[2-trifluoromethyl-4-(2-trifluoromethyl-pyrimidin-5-yl)-thiazol-5-yl]-piperazin-1-yl}-ethanone] |  |  |  | 11 |
| CC[C@@H]1CN(c2sc(C(F)(F)F)nc2-c2cnc(C(F)(F)F)nc2)CCN1C(=O)Cn1nc(C)nc1C [Example 51, 2-(3,5-Dimethyl-[1,2,4]triazol-1-yl)-1-{(R)-2-ethyl-4-[2-trifluoromethyl-4-(2-trifluoromethyl-pyrimidin-5-yl)-thiazol-5-yl]-piperazin-1-yl}-ethanone] | 0.6 | 6 | 18 | 1 |
| Cc1nc(C)n(CC(=O)N2CCN(c3sc(C(F)(F)F)nc3-c3cnc(C(C)(F)F)nc3)C[C@H]2C)n1 [Example 52, 1-((R)-4-{4-[2-(1,1-Difluoro-ethyl)-pyrimidin-5-yl]-2-trifluoromethyl-thiazol-5-yl}-2-methyl-piperazin-1-yl)-2-(3,5-dimethyl-[1,2,4]triazol-1-yl)-ethanone] | 4.5 | 2 | 6 |  |
